The source of these data is the supplement of paper PMC9151546.

Counter-ions that a name gives are not always drawn. Where only a bound is given, the exact number is not on record here.

Test [1] deals with CHO-K1. The experiment in a line: benchmark concentration for 60% increase in hypodiploid frequency (BMC60); higher = less potent aneugen. As for the experimental part: (§1)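 Benchmark concentration modelling (PROAST, Hill/exponential model families) of the 19-concentration flow-cytometric micronucleus assay in CHO-K1 cells, with and without rat liver S9. Only non-cytotoxic and adequate (relative survival >=40%) concentrations were used. BMR was a 30% increase in %MN (BMC30) or a 60% increase in %hypodiploid (BMC60) over control.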

Test [2] has as its system CHO-K1. The experiment in a line: benchmark concentration for 30% increase in micronucleus frequency (BMC30); higher = less potent clastogen. The protocol: as §1
Setting [3] is: S9 metabolic activation: without S9.
Where [4] appears, read: S9 metabolic activation: with S9.

On to `CC(C)(c1ccc(O)cc1)c1ccc(O)cc1` [Bisphenol A], for which the benchmark concentration in the test on CHO-K1 [1] (setting [3]) was 48 µM; in the test with CHO-K1 [2] (setting [3]), 71 µM.

With `Oc1ccc2ccccc2c1N=Nc1ccccc1` [C.I. Solvent Yellow 14], the benchmark concentration in the test on CHO-K1 [1] (setting [4]) amounted to 91 µM; with CHO-K1 [1] (setting [3]), 11 µM; with CHO-K1 [2] (setting [3]) it was 23 µM.

On to `O=C1CCCCCN1` [Caprolactam], for which the results for the benchmark concentration with CHO-K1 [1] (setting [3]) and in the test with CHO-K1 [2] (setting [3]) were 150 µM and 44 µM, respectively.

Turning to `O=C(O)C1C(C(=O)O)C2(Cl)C(Cl)=C(Cl)C1(Cl)C2(Cl)Cl` (stereo unspecified) [Chlorendic acid], the results for the benchmark concentration in the test on CHO-K1 [1] (setting [3]) and with CHO-K1 [2] (setting [3]) were 97 µM and 110 µM, respectively.

For the compound `CCOP(=S)(OCC)Oc1nc(Cl)c(Cl)cc1Cl` [Chlorpyrifos], the benchmark concentration with CHO-K1 [1] (setting [4]) came out at 42 µM; with CHO-K1 [1] (setting [3]), 69 µM; in the test on CHO-K1 [2] (setting [4]), 29 µM.

Turning to `CC(C)(OO)c1ccccc1` [Cumene hydroperoxide], the benchmark concentration in the test with CHO-K1 [1] (setting [3]) worked out at 63 µM; with CHO-K1 [2] (setting [3]), 56 µM.

Consider `NC1CCCCC1` [Cyclohexylamine], for which the results for the benchmark concentration with CHO-K1 [1] (setting [3]) and in the test with CHO-K1 [2] (setting [3]) were 43 µM and 72 µM, respectively.

On to `Nc1ccn([C@@H]2O[C@H](CO)[C@@H](O)[C@@H]2O)c(=O)n1` [Cytarabine hydrochloride], for which the results for the benchmark concentration in the test with CHO-K1 [1] (setting [4]) and in the test on CHO-K1 [2] (setting [4]) were 27 µM and 5.9 µM, respectively.

Take `O=c1c(-c2ccc(O)cc2)coc2cc(O)ccc12` [Daidzein]: the results for the benchmark concentration in the test with CHO-K1 [1] (setting [4]) and with CHO-K1 [2] (setting [4]) were 47 µM and 14 µM, respectively.

As to `C=CCOC(=O)c1ccccc1C(=O)OCC=C` [Diallyl phthalate], the benchmark concentration in the test on CHO-K1 [1] (setting [3]) came to 65 µM; in the test on CHO-K1 [2] (setting [4]), 61 µM.

With `N#CC(Br)Br` [Dibromoacetonitrile], the benchmark concentration came out at 15 µM in the test on CHO-K1 [1] (setting [3]) and 32 µM in the test with CHO-K1 [2] (setting [3]).

For `O=C(O)C(Cl)Cl` [Dichloroacetic acid], the benchmark concentration in the test on CHO-K1 [1] (setting [3]) stood at 95 µM; in the test with CHO-K1 [2] (setting [3]), 94 µM.

Take `COP(=O)(OC)OC=C(Cl)Cl` [Dichlorvos]: the benchmark concentration worked out at 90 µM in the test on CHO-K1 [1] (setting [3]) and 66 µM in the test with CHO-K1 [2] (setting [3]).

Take `ClC1=C(Cl)[C@]2(Cl)[C@@H]3[C@@H]4C[C@@H]([C@H]5O[C@@H]45)[C@@H]3[C@@]1(Cl)C2(Cl)Cl` [Dieldrin]: the benchmark concentration came to 90 µM with CHO-K1 [1] (setting [3]) and 74 µM in the test on CHO-K1 [2] (setting [3]).

As to `CCOC(=O)c1ccccc1C(=O)OCC` [Diethyl phthalate], the benchmark concentration in the test with CHO-K1 [1] (setting [3]) came to 99 µM; in the test on CHO-K1 [2] (setting [3]), 100 µM.

Take `CC(=O)OC1CC(C)OC(C)O1` (stereo unspecified) [Dimethoxane]: the benchmark concentration in the test on CHO-K1 [1] (setting [4]) was 59 µM; in the test on CHO-K1 [2] (setting [4]), 86 µM; in the test with CHO-K1 [2] (setting [3]), 30 µM.

Consider `C[C@]12CC[C@@H]3c4ccc(O)cc4CC[C@H]3[C@@H]1CCC2=O` [Estrone], for which the benchmark concentration in the test on CHO-K1 [1] (setting [3]) was 5.3 µM; in the test with CHO-K1 [2] (setting [3]), below 4.5 µM.

Turning to `O=C(O)C1=NN(c2ccc(S(=O)(=O)O)cc2)C(=O)C1N=Nc1ccc(S(=O)(=O)O)cc1` (stereo unspecified) [FD&C Yellow 5], the benchmark concentration stood at 47 µM in the test on CHO-K1 [1] (setting [3]), 15 µM in the test on CHO-K1 [2] (setting [4]) and 25 µM in the test with CHO-K1 [2] (setting [3]).

Turning to `CN(C)c1ccc(N=NS(=O)(=O)O)cc1` [Fenaminosulf], the benchmark concentration is 41 µM in the test with CHO-K1 [1] (setting [3]) and 27 µM with CHO-K1 [2] (setting [3]).

In the case of `Nc1nc(=O)c2nc(CNc3ccc(C(=O)N[C@@H](CCC(=O)O)C(=O)O)cc3)cnc2[nH]1` [Folic acid], the values for the benchmark concentration in the test on CHO-K1 [1] (setting [3]) and with CHO-K1 [2] (setting [4]) were 110 µM and 57 µM, respectively.

Regarding `CN(C)c1ccc(C(=C2C=CC(=[N+](C)C)C=C2)c2ccc(N(C)C)cc2)cc1` [Gentian Violet], the benchmark concentration in the test on CHO-K1 [1] (setting [4]) was determined as 0.23 µM; with CHO-K1 [2] (setting [4]), 0.91 µM.

On to `ClC1=C(Cl)C2(Cl)C3C4OC4C(Cl)C3C1(Cl)C2(Cl)Cl` (stereo unspecified) [Heptachlor epoxide], for which the benchmark concentration with CHO-K1 [1] (setting [3]) was determined as 28 µM; with CHO-K1 [2] (setting [4]), 45 µM; with CHO-K1 [2] (setting [3]) it was 25 µM.

Turning to `ClC1=C(Cl)C2(Cl)C3C(Cl)C=CC3C1(Cl)C2(Cl)Cl` (stereo unspecified) [Heptachlor], the benchmark concentration in the test with CHO-K1 [1] (setting [4]) stood at 19 µM; with CHO-K1 [1] (setting [3]), 20 µM; in the test with CHO-K1 [2] (setting [4]), 11 µM; in the test with CHO-K1 [2] (setting [3]), 64 µM.

Turning to `NS(=O)(=O)c1cc2c(cc1Cl)NCNS2(=O)=O` [Hydrochlorothiazide], the benchmark concentration with CHO-K1 [1] (setting [3]) came to 73 µM; in the test with CHO-K1 [2] (setting [4]), 29 µM.

Turning to `Oc1ccc(O)cc1` [Hydroquinone], the benchmark concentration in the test with CHO-K1 [1] (setting [4]) came to 90 µM; with CHO-K1 [2] (setting [4]), 63 µM.

As to `NC(=O)NO` [Hydroxyurea], the benchmark concentration was determined as 29 µM in the test with CHO-K1 [1] (setting [3]) and 19 µM with CHO-K1 [2] (setting [3]).

For the compound `NNC(=O)c1ccncc1` [Isoniazid], the benchmark concentration was found to be 51 µM in the test on CHO-K1 [1] (setting [3]) and 21 µM in the test with CHO-K1 [2] (setting [4]).
